Data on nine compounds can be found in patent publication US20250186456A1, “PYRIMIDINE-FUSED CYCLIC COMPOUND AND PREPARATION METHOD AND USE THEREOF” (Genfleet Therapeutics (Shanghai) Inc., priority 2021, published 2025).

What all share (type): cell-based, human
Test [1] deals with p-ERK in AGS cells (KRAS G12D mutation). Kind of test: Cell p-ERK assay (HTRF, Advance ERK phospho-T202/Y204 kit). The following applies: AGS cells, 3 hours incubation with compound, HTRF, read-out: AGS p-ERK IC50. The procedure, abridged:
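AGS cells (endogenous KRAS G12D) seeded at ~20000 cells/well overnight, then treated 3 h with 3.16-fold compound dilutions, 0.1% DMSO final. Lysates assayed for phospho-T202/Y204 ERK by HTRF after 4 h antibody incubation; inhibition vs DMSO and blank, IC50 by four-parameter fit.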
(In general: In TR-FRET formats the signal depends on donor and acceptor labels being close together.)

Another test concerns AGS cells (KRAS G12D). The experiment in a line: Cell proliferation inhibition assay, 3D, CellTiter-Glo 3D, AGS. As to conditions: AGS 3D sphere model, 5 days incubation. The procedure, abridged:
(§1)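 Spheroids (800 AsPC-1 or 400 AGS cells/well; RPMI-1640 or F-12K with 10% FBS) formed overnight, then were dosed on day 2 with a 3.16-fold series at 0.1% DMSO. After 5 days, viability was read by CellTiter-Glo 3D luminescence, and IC50 came from four-parameter fits of inhibition versus DMSO control and medium blank.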

Test [2] concerns AsPC-1 cells (KRAS G12D mutation). Kind of test: Cell proliferation inhibition assay, 3D, CellTiter-Glo 3D, AsPC-1. As to conditions: AsPC-1 3D sphere model, 5 days incubation. The procedure, abridged: as §1
(In general: Cellular ATP, detected with luciferase, serves as a proxy for viable cell number.)

Read-outs that look alike come from different tables or passages of the source.

Turning to `C#Cc1cccc2cc(N)cc(-c3nc4c5c(nc(OC[C@@H]6CCCN6CC(F)F)nc5c3F)N3C[C@H]5CC[C@H](N5)[C@H]3[C@H](C)O4)c12` [Example Z733, 4-((5S,5aS,6S,9R)-12-(((S)-1-(2,2-difluoroethyl)pyrrolidin-2-yl)methoxy)-1-fluoro-5-methyl-5a,6,7,8,9,10-hexahydro-5H-4-oxa-3,10a,11,13,14-pentaaza-6,9-methanonaphtho[1,8-ab]heptalen-2-yl)-5-ethynylnaphthalen-2-amine], the half-maximal inhibitory concentration (IC50) (as a rule, the point on the concentration scale where inhibition reaches its midpoint) in test [1] (Homo sapiens) is 76 nM; with AGS cells (KRAS G12D) (Homo sapiens, 120 h) it was 297 nM; in test [2] (Homo sapiens, ASPC1, 120 h), 267 nM.

`C#Cc1c(F)ccc2cccc(-c3nc4c5c(nc(OCC67CC(=C)CN6C[C@@H](OC)C7)nc5c3F)N3C[C@H]5CC[C@H](N5)[C@H]3[C@H](C)O4)c12` (stereo partly drawn) [Example Z692, (5S,5aS,6S,9R)-2-(8-ethynyl-7-fluoronaphthalen-1-yl)-1-fluoro-12-(((2S)-2-methoxy-6-methylenetetrahydro-1H-pyrrolizin-7a (5H)-yl)methoxy)-5-methyl-5a,6,7,8,9,10-hexahydro-5H-4-oxa-3,10a,11,13,14-pentaaza-6,9-methanonaphtho[1,8-ab]heptalene]: the half-inhibitory concentration (IC50) worked out at 188 nM in test [1] (Homo sapiens); 378 nM in the test on AGS cells (KRAS G12D) (Homo sapiens, 120 h); 290 nM in test [2] (Homo sapiens, ASPC1, 120 h).

As to `CCc1cccc2cc(O)cc(-c3nc4c5c(nc(OC[C@@]67CCCN6C[C@H](F)C7)nc5c3F)N3C[C@H]5CC[C@H](N5)[C@H]3CO4)c12` [Example Z140-1, 5-Ethyl-4-((5aS,6S,9R)-1-Fluoro-12-(((2R,7aS)-2-Fluorotetrahydro-1H-Pyrrolizin-7a (5H)-Yl)Methoxy)-5a,6,7,8,9,10-Hexahydro-5H-4-Oxa-3,10a,11,13,14-Pentaaza-6,9-Methanonaphtho[1,8-Ab]Heptalen-2-Yl) Naphthalen-2-Ol], the IC50 in test [1] (Homo sapiens) worked out at 2.85 nM; in the test on AGS cells (KRAS G12D) (Homo sapiens, 120 h), 4 nM; in test [2] (Homo sapiens, ASPC1, 120 h), 21.1 nM.

For the compound `C#Cc1c(F)ccc2cccc(-c3nc4c5c(nc(OCC67CC(OC)CN6CCC7=C)nc5c3F)N3C[C@H]5CC[C@H](N5)[C@H]3[C@H](C)O4)c12` (stereo partly drawn) [Example Z681, (5S,5aS,6S,9R)-2-(8-Ethynyl-7-Fluoronaphthalen-1-Yl)˜1-Fluoro-12-((6-Methoxy-1-Methylenetetrahydro-1H-Pyrrolizin-7a (5H)-Yl)Methoxy)-5-Methyl-5a,6,7,8,9,10-Hexahydro-5H-4-Oxa-3,10a,11,13,14-Pentaaza-6,9-Methanonaphtho[1,8-Ab]Heptalene], the half-maximal inhibitory concentration (IC50) in test [1] is 5.73 nM; with AGS cells (KRAS G12D), 13 nM; in test [2], 37.9 nM.

For `C#Cc1c(F)ccc2cccc(-c3nc4c5c(nc(OCC67CCCN6CCC7=C(F)F)nc5c3F)N3C[C@H]5CC[C@H](N5)[C@H]3[C@H](C)O4)c12` (stereo partly drawn) [Example Z612, (5S,5aS,6S,9R)-12-((1-(difluoromethylene)tetrahydro-1H-pyrrolizin-7a (5H)-yl)methoxy)-2-(8-ethynyl-7-fluoronaphthalen-1-yl)-1-fluoro-5-methyl-5a,6,7,8,9,10-hexahydro-5H-4-oxa-3,10a, 11,13,14-pentaaza-6,9-methanonaphtho[1,8-ab]heptalene], the concentration for half-maximal inhibition (IC50) amounted to 99.3 nM in test [1] (Homo sapiens); 65.4 nM with AGS cells (KRAS G12D) (Homo sapiens, 120 h); 124 nM in test [2] (Homo sapiens, ASPC1, 120 h).

With `C#Cc1cccc2cccc(-c3nc4c5c(nc(OC[C@@]67CCCN6CCC7=C)nc5c3F)N3C[C@H]5CC[C@H](N5)[C@H]3[C@H](C)O4)c12` [Example Z702, (5S,5aS,6S,9R)-2-(8-ethynylnaphthalen-1-yl)-1-fluoro-5-methyl-12-(((S)-1-methylenetetrahydro-1H-pyrrolizin-7a (5H)-yl)methoxy)-5a,6,7,8,9,10-hexahydro-5H-4-oxa-3,10a, 11,13,14-pentaaza-6,9-methanonaphtho[1,8-ab]heptalene], the 50% inhibitory concentration (IC50) in test [1] (Homo sapiens) was 11.1 nM; with AGS cells (KRAS G12D) (Homo sapiens, 120 h), 26.8 nM; in test [2] (Homo sapiens, ASPC1, 120 h), 51.9 nM.

For `C#Cc1cccc2cc(N)cc(-c3nc4c5c(nc(OCC67CC(=C)CN6C[C@H](F)C7)nc5c3F)N3C[C@H]5CC[C@H](N5)[C@H]3[C@H](C)O4)c12` (stereo partly drawn) [Example Z699, 5-ethynyl-4-((5S,5aS,6S,9R)-1-fluoro-12-(((2R)-2-fluoro-6-methylenetetrahydro-1H-pyrrolizin-7a (5H)-yl)methoxy)-5-methyl-5a,6,7,8,9,10-hexahydro-5H-4-oxa-3,10a, 11,13,14-pentaaza-6,9-methanonaphtho[1,8-ab]heptalen-2-yl) naphthalen-2-amine], the 50% inhibitory concentration (IC50) stood at 0.44 nM in test [1] (Homo sapiens); 1.98 nM in the test with AGS cells (KRAS G12D) (Homo sapiens, 120 h); 2.37 nM in test [2] (Homo sapiens, ASPC1, 120 h).

Consider `C#Cc1cccc2cc(N)cc(-c3nc4c5c(nc(OCC67CC(=C)CN6CC(=C)C7)nc5c3F)N3C[C@H]5CC[C@H](N5)[C@H]3[C@H](C)O4)c12` [Example Z703, 4-((5S,5aS,6S,9R)-12-((2,6-dimethylenetetrahydro-1H-pyrrolizin-7a (5H)-yl)methoxy)-1-fluoro-5-methyl-5a,6,7,8,9,10-gexahydro-5H-4-oxa-3,10a,11,13,14-pentaaza-6,9-methanonaphtho[1,8-ab]heptalene-2-yl)-5-ethynylnaphthalen-2-amine], for which the values for the half-maximal inhibitory concentration (IC50) (in test [1]; in the test on AGS cells (KRAS G12D); in test [2]) were 1.05 nM, 2.64 nM and 1.78 nM, respectively.

For the compound `C#Cc1cccc2c(F)c(N)cc(-c3nc4c5c(nc(OCC67CCCN6CC(F)(F)C7)nc5c3F)N3C[C@H]5CC[C@H](N5)[C@H]3[C@H](C)O4)c12` (stereo partly drawn) [Example Z725, 4-((5S,5aS,6S,9R)-12-((2,2-difluorotetrahydro-1H-pyrrolizin-7a (5H)-yl)methoxy)-1-fluoro-5-methyl-5a,6,7,8,9,10-hexahydro-5H-4-oxa-3,10a,11,13,14-pentaaza-6,9-methanonaphtho[1,8-ab]heptalen-2-yl)-5-ethynyl-1-fluoronaphthalen-2-amine], the concentration for half-maximal inhibition (IC50) in test [1] (Homo sapiens) was found to be 42.3 nM; in the test with AGS cells (KRAS G12D) (Homo sapiens, 120 h) it was 62.7 nM; in test [2] (Homo sapiens, ASPC1, 120 h), 106 nM.
